Measurements published in patent publication US20250188085A1, “COMPOSITIONS AND METHODS FOR INHIBITION OF RAS” (THERAS, INC., priority 2022, published 2025).
Read-outs that look alike come from different tables or passages of the source.

Tests used:
[1] = biological target: T1, GppNHp-loaded KRAS4b (amino acids 1-169) G12C/C118S protein (Homo sapiens, UniProt P01116, C118S/G12C); test: Covalent cysteine 12 modification by MALDI-TOF MS, GppNHp-loaded KRAS G12C; type: binding; conditions: 15 minutes reaction time point
T1 construct: KRAS4b (amino acids 1-169) G12C/C118S protein; made in house
Outline: (§1)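 KRAS4b 1-169 G12C/C118S loaded with GDP, GppNHp or GTP was used at 1 μM in 20 mM HEPES, 150 mM NaCl, 1 mM MgCl2, pH 7.3, and incubated with compound (5 mM DMSO stock) at room temperature in the dark. % modification at 15 min is adduct peak height over total protein peak heights by linear-mode MALDI-TOF.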

[2] = biological target: T2, GTP-loaded KRAS4b (amino acids 1-169) G12C/C118S protein (Homo sapiens, UniProt P01116, C118S/G12C); test: Covalent cysteine 12 modification by MALDI-TOF MS, GTP-loaded KRAS G12C; type: binding; conditions: 15 minutes reaction time point
T2 construct: KRAS4b (amino acids 1-169) G12C/C118S protein; made in house
Procedure: Reaction: 1 μM of GppNHp-, GTP-, or GDP-loaded KRAS4b (amino acids 1-169) G12C/C118S protein (produced in-house by Protein Expression Laboratory, FNLCR/Leidos Biomed) in 20 mM 4-(2-hydroxyethyl)-1-piperazineethanesulfonic acid (HEPES) buffer containing 150 mM NaCl, 1 mM MgCl2, pH 7.3 was prepared freshly before assay. Ten-μL aliquots of protein were dispensed onto low volume 384-well plate, then 375 nL DMSO, and 25 nL of tested compounds from 5 mM DMSO stocks were added to appropriate wells using ECHO 555 acoustic liquid handler (Labcyte Inc.). For each reaction/assay, three blanks were prepared by mixing 10 μL of protein solution with 400 nL DMSO. The contents of the wells were carefully mixed by aspiration, and then each plate was sealed with an adhesive cover, centrifuged at 2000 g for 1 minute, and kept in the dark at room temperature until 5 min, 15 min, 30 min, or 2 h collections.
Target pretreatment: Before each assay MALDI target (Bruker MPT 384 ground steel BC) was pre-treated by pipetting on each spot 0.75 μL of saturated sinapinic acid in acetonitrile (ACN).
Sample preparation: At collection time point, 2 μL of reaction mixtures were pipetted out into 20 μL MALDI matrix solution (saturated solution of sinapinic acid in 1:1 ACN:water solution containing 0.75% trifluoroacetic acid (TFA)) deposited on 384 well polypropylene plate. Resulting solution was mixed by aspiration, centrifuged at 2000 g for 1 minute, then 1 μL aliquots were dispensed on pre-treated MALDI target using Beckman Coulter Biomek FXP 96/384-Span-8 Laboratory Automation Workstation. Finally, the MALDI target was dried under mild vacuum to produce spots with fine crystalline structure.
Measurements: MALDI-TOF measurements were performed on a Bruker Daltonics rapiflex Tissuetyper TOF-TOF mass spectrometer using linear mode and mass range from 18.6 to 21.6 kDa. Detector gain was set to 3.3× (483 V), sample rate to 5 GS/s, real time smoothing to medium (175 MHz), laser smart beam pattern was set to: “MS Thin Layer M5”, and the laser frequency was 10000 Hz. Spectra were automatically collected using custom Auto Xecute method. Laser power was auto adjusted using fuzzy control. The peak selection range was set to be between 19000 and 21500 Da. Peak evaluation uses half width parameter set to be smaller than 40 Da for processed spectrograms (centroid peak detection; smoothed by SavitzkyGolay algorithm using 7 m/z width and 2 cycles; baseline was subtracted using median algorithm with flatness 1 and median level 0.01). Fuzzy control used Proteins/Oligonucleotides protocol with minimum half width 1/10 times above threshold. Up to 40000 satisfactory shots were collected in 10000 shot steps. Dynamic termination was implemented to finish data collection when peak signal/noise ratio was reaching value of 50.
Spectra processing: Spectra were smoothed by SavitzkyGolay algorithm using 7 m/z width and three cycles. Centroid peak detection algorithm was used with signal to noise threshold set to 6, relative intensity threshold 4%, peak width 10 m/z and median baseline subtraction using flatness of 1 and median level of 0.01. Peak intensity and area under the peak were evaluated and recorded for all peaks between 19,300 Da and 21,550 Da.
Calculation of percent modification: Percent modification was calculated as a ratio of peak height for protein modified by compound to sum of peak height of remaining protein plus peak height for protein modified by compound. If multiple modifications were observed each was calculated as a ratio of peak height for given modification versus sum of peak heights for all observed protein species. Data reported in Table 5 are from 15 minutes reaction time point.

[3] = biological target: T3, GDP-loaded KRAS4b (amino acids 1-169) G12C/C118S protein (Homo sapiens, UniProt P01116, C118S/G12C); test: Covalent cysteine 12 modification by MALDI-TOF MS, GDP-loaded KRAS G12C; type: binding; conditions: 15 minutes reaction time point
T3 construct: KRAS4b (amino acids 1-169) G12C/C118S protein; made in house
Outline: as §1

[4] = biological target: T4, Avi-KRAS G12C (1-169) GppNHp/RAF1 RBD-3×FLAG (52-151) (Homo sapiens, UniProt P01116, G12C); test: Raf1 RBD-KRAS G12C-GppNHp disruption (protein:protein interaction HTRF assay); type: biochemical
T4 construct: Avi-KRAS G12C (1-169) GppNHp/RAF1 RBD-3×FLAG (52-151)
Outline: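 HTRF measuring disruption of 50 nM Avi-KRAS G12C (1-169) loaded with GppNHp binding RAF1 RBD-3×FLAG (52-151), in pH 7.5 Tris buffer with 5 mM MgCl2, 0.1% BSA, 10% DMSO. KRAS preincubated with compound 1 h, then RBD 1 h, then detection reagents 1 h, all at room temperature. Compound titration 30-0.02 μM; activity expressed as percent of DMSO control.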

pERK in NCI-H358 cells = test: Cell-based pERK HTRF assay; conditions: 30 min incubation, read-out: pERK in NCI-H358 cell inhibition IC50
Outline: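 Cells seeded at 4×10^4/well in RPMI with 10% FBS, then next day treated for 30 min with a 9-point, 3-fold series from 75 μM top concentration at 0.25% DMSO. Lysates were read for pERK by HTRF (d2/Eu cryptate antibodies) after 4–24 h at room temperature, emission at 615 nm.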

Structure (SMILES) | GppNHp-KRAS G12C percent of modification [1] | GTP-KRAS G12C percent of modification [2] | GDP-KRAS G12C percent of modification [3] | IC50 [4] [nM] | IC50 (pERK in NCI-H358 cells; Homo sapiens, NCI-H358, 0.5 h) [nM] | IC50 (pERK in NCI-H358 cells) [nM]
C=CC(=O)N1CC[C@@H](Oc2nc(OC[C@@]34CCCN3C[C@H](F)C4)nc3c(Cl)c(-c4ccc(F)c5sc(N)nc45)c(C(F)(F)F)cc23)C1 (atropisomer, axis not shown) [Compound 44] | A (percent of modification ≥70%) | B (50≤percent of modification <70%) | A (percent of modification ≥70%) | ≤ 500 | ≤ 100 | –
C=CC(=O)N1C[C@H](Oc2nc(OC[C@@]34CCCN3C[C@H](F)C4)nc3c(F)c(-c4ccc(F)c5sc(N)c(C#N)c45)c(C(F)(F)F)cc23)C[C@@H]1COC (atropisomer, axis not shown) [Compound 85] | C (10%≤modification <50%) | C (10%≤modification <50%) | C (10%≤modification <50%) | ≤ 500 | – | ≤ 100
C=CC(=O)N1C[C@H](Oc2nc(OC[C@@]34CCCN3C[C@H](F)C4)nc3c(F)c(-c4ccc(F)c5sc(N)c(C#N)c45)c(C(F)(F)F)cc23)C[C@@H]1COC (atropisomer, axis not shown) [Compound 86] | D (percent of modification <10%) | D (percent of modification <10%) | D (percent of modification <10%) | 5000 to 20000 | – | > 1000
C=CC(=O)N1CC[C@@H](Oc2nc(OC[C@@]34CCCN3C[C@H](F)C4)nc3c(F)c(-c4ccc(F)c5sc(N)c(C#N)c45)c(C(F)(F)F)cc23)[C@H]1C (single isomer, unassigned) [Compound 63] | A (percent of modification ≥70%) | A (percent of modification ≥70%) | A (percent of modification ≥70%) | ≤ 500 | – | ≤ 100
C=CC(=O)N1CC[C@@H](Oc2nc(OC[C@@]34CCCN3C[C@H](F)C4)nc3c(F)c(-c4ccc(F)c5sc(N)c(C#N)c45)c(C(F)(F)F)cc23)[C@H]1C (single isomer, unassigned) [Compound 64] | D (percent of modification <10%) | D (percent of modification <10%) | D (percent of modification <10%) | > 20000 | – | > 1000
C=CC(=O)N1CCC(Oc2nc(OC[C@@]34CCCN3C[C@H](F)C4)nc3c(F)c(-c4ccc(F)c5sc(N)nc45)c(C(F)(F)F)cc23)C1(C)C (stereo partly shown) [Compound 45] | C (10%≤modification <50%) | C (10%≤modification <50%) | B (50≤percent of modification <70%) | ≤ 500 | ≤ 100 | –
C=CC(=O)N1CC[C@@H](Oc2nc(OC[C@@]34CCCN3C[C@H](F)C4)nc3c(F)c(-c4ccc(F)c5sc(N)c(C#N)c45)c(C(F)(F)F)cc23)C1 [Compound 46] | B (50≤percent of modification <70%) | B (50≤percent of modification <70%) | B (50≤percent of modification <70%) | ≤ 500 | ≤ 100 | –
C=CC(=O)N1C[C@H](Oc2nc(OC[C@@]34CCCN3C[C@H](F)C4)nc3cc(-c4ccc(F)c5sc(N)c(C#N)c45)c(C(F)(F)F)cc23)[C@@H](F)C1 [Compound 49] | B (50≤percent of modification <70%) | C (10%≤modification <50%) | C (10%≤modification <50%) | ≤ 500 | ≤ 100 | –

Other lines, results leading:

GppNHp-KRAS G12C percent of modification [1] | GTP-KRAS G12C percent of modification [2] | GDP-KRAS G12C percent of modification [3] | IC50 [4] [nM] | IC50 (pERK in NCI-H358 cells; Homo sapiens, NCI-H358, 0.5 h) [nM] | IC50 (pERK in NCI-H358 cells) [nM] | Structure (SMILES)
B (50≤percent of modification <70%) | B (50≤percent of modification <70%) | A (percent of modification ≥70%) | ≤ 500 | – | ≤ 100 | C=CC(=O)N1C[C@H](Oc2nc(OC[C@@]34CCCN3C[C@H](F)C4)nc3c(F)c(-c4ccc(F)c5sc(N)c(C#N)c45)c(C(F)(F)F)cc23)C[C@H]1COC (atropisomer, axis not shown) [Compound 89]
D (percent of modification <10%) | D (percent of modification <10%) | D (percent of modification <10%) | > 20000 | – | > 1000 | C=CC(=O)N1C[C@H](Oc2nc(OC[C@@]34CCCN3C[C@H](F)C4)nc3c(F)c(-c4ccc(F)c5sc(N)c(C#N)c45)c(C(F)(F)F)cc23)C[C@H]1COC (atropisomer, axis not shown) [Compound 90]
A (percent of modification ≥70%) | A (percent of modification ≥70%) | A (percent of modification ≥70%) | ≤ 500 | ≤ 100 | – | C=CC(=O)N1CC[C@@H](Oc2nc(OC[C@@]34CCCN3C[C@H](F)C4)nc3c(F)c(-c4ccc(F)c5sc(N)c(C#N)c45)c(C(F)(F)F)cc23)[C@H]1COC (atropisomer, axis not shown) [Compound 95]
D (percent of modification <10%) | D (percent of modification <10%) | D (percent of modification <10%) | 5000 to 20000 | – | 100 to 1000 | C=CC(=O)N1CC[C@@H](Oc2nc(OC[C@@]34CCCN3C[C@H](F)C4)nc3c(F)c(-c4ccc(F)c5sc(N)c(C#N)c45)c(C(F)(F)F)cc23)[C@H]1COC (atropisomer, axis not shown) [Compound 96]
B (50≤percent of modification <70%) | C (10%≤modification <50%) | A (percent of modification ≥70%) | – | ≤ 100 | – | C=CC(=O)N1CC[C@@H](Oc2nc(OC[C@@]34CCCN3C[C@H](F)C4)nc3cc(-c4ccc(F)c5sc(N)c(C#N)c45)c(F)cc23)[C@H]1C [Compound 109]
